Results taken from patent US20230217926A1, “SELECTIVE HERBICIDES BASED ON SUBSTITUTED ISOXAZOLIN CARBOXAMIDES AND ISOXADIFEN-ETHYL” (BAYER AKTIENGESELLSCHAFT, priority 2020, published 2023).

What was measured:
[1] = system: ZEAMA Sileno; assay: Tank-mix post-emergence crop damage, greenhouse, visual assessment; type: in vivo, maize; design: key to Reduction [Difference]: % points: herbicide damage without safener − damage with safener
[2] = system: HORVS Montoya; assay: as above; type: in vivo, spring barley; conditions: 10 DAT; for Reduction [%] / Reduction [Difference]: isoxadifen-ethyl 50 g a.i./ha; for HER effect: no safener
Experimental: (§1) Seeds of crops (spring wheat, TRZAS; spring barley, HORVS; maize, ZEAMA) were placed in sandy loam soil in peat pots, covered with soil and cultivated in a greenhouse under good growth conditions. Two to three weeks after sowing, the test plants were treated at the 1 to 3-leaf stage. The herbicide/safener active compound combinations according to the invention, formulated as wettable powders or emulsion concentrates, and, in parallel tests, the correspondingly formulated individual active compounds were sprayed onto the green parts of the plants in various dosages using an amount of water of 300 l/ha (converted).
(§2) The pots were returned under good growing conditions in a glasshouse and a visual assessment of herbicidal effects was made at intervals from 1 to 3 weeks after herbicide application (DAT=days after treatment). Assessment was on a percentage basis in comparison with untreated control plants (0%=no injury, 100%=complete kill).
(§3) Reduction[Difference]=herbicide damage without safener−herbicide damage with safener Reduction[%]=(Reduction[Difference]*100)/herbicide damage without safener
c) Plant Species, Variety: HORVS Montoya, Safener (SAF): Isoxadifen-Ethyl

[3] = system: TRZAS Triso; assay: as above; type: in vivo, spring wheat; conditions: 21 DAT; for Reduction [%] / Reduction [Difference]: isoxadifen-ethyl 50 g a.i./ha; for HER effect: no safener
Experimental: as §1, §2, §3
5d) Plant Species, Variety: TRZAS Triso, Safener (SAF): Isoxadifen-Ethyl

[4] = system: TRZAS Triso; assay: Safener seed treatment, pre-emergence herbicide, crop damage; type: in vivo, spring wheat; design: key to Reduction [Difference]: % crop damage without safener minus % damage with safener; conditions: for Reduction [%] / Reduction [Difference]: isoxadifen-ethyl 0.25 g a.i./kg seed; for HER effect + SAF: isoxadifen-ethyl seed treatment 0.25 g a.i./kg seed; for HER effect: no safener
Experimental: (§4) For the safener seed treatment, sufficient seeds of the respective crops (spring wheat, TRZAS; spring barley, HORVS; maize, ZEAMA) were weighed into screw top glass bottles approximately twice the volume of the seeds.
(§5) The specified safeners, formulated as wettable powder (WP) were weighed out so that the specified rates (g a.i./kg seed) would be obtained, dissolved in water (1 ml water per 10 g of seeds), and added to the seeds to produce a slurry.
(§6) The bottles were capped and then placed in an overhead shaker (set at medium speed for ca. 60 minutes) so that the seeds were evenly coated with the slurry. The bottles were uncapped and the seeds were either placed on paper and dried for an interval of 3-4 hours prior to sowing, or directly sown. Seeds were placed in sandy loam soil in pots of a diameter of 7-8 cm, and covered with soil.
(§7) Pre-emergence application of the specified herbicides was done subsequently, on two sets of plants: a) seed treatment with safener, as described above
(§8) The herbicides were formulated as WP and was sprayed onto the soil surface as an aqueous suspension at an equivalent water application rate of 300 l/ha.
(§9) After application, the test plants were kept in the greenhouse under good growth conditions. At intervals up to 4 weeks after application (=28 days after treatment; DAT), % crop damage observed on the treated plants was scored visually in comparison to control plants that had not received any safener or herbicide treatment.
(§10) Values in the table below are mean values of at least 2 replicates.
Reduction[Difference]=herbicide damage without safener−herbicide damage with safener Reduction[%]=(Reduction[Difference]*100)/herbicide damage without safener a) Plant Species, Variety: TRZAS Triso, Safener (SAF): Isoxadifen-Ethyl

[5] = system: HORVS Montoya; assay: as above; type: in vivo, spring barley; design: key to Reduction [Difference]: % crop damage without safener minus % damage with safener; conditions: HER 15 g a.i./ha pre-emergence; for Reduction [%] / Reduction [Difference]: isoxadifen-ethyl 0.25 g a.i./kg seed; for HER effect + SAF: isoxadifen-ethyl seed treatment 0.25 g a.i./kg seed; for HER effect: no safener
Experimental: as §4, §5, §6, §7, §8, §9, §10
Reduction[Difference]=herbicide damage without safener−herbicide damage with safener Reduction[%]=(Reduction[Difference]*100)/herbicide damage without safener b) Plant Species, Variety: HORVS Montoya, Safener (SAF): Isoxadifen-Ethyl

[6] = system: ZEAMA Sileno; assay: as above; type: in vivo, maize; design: key to Reduction [Difference]: % crop damage without safener minus % damage with safener; conditions: for Reduction [%] / Reduction [Difference]: isoxadifen-ethyl 0.25 g a.i./kg seed; for HER effect + SAF: isoxadifen-ethyl seed treatment 0.25 g a.i./kg seed; for HER effect: no safener
[7] = HER 2 g a.i./ha, isoxadifen-ethyl 50 g a.i./ha, Final
[8] = HER 0.25 g a.i./ha + isoxadifen-ethyl 50 g a.i./ha
[9] = HER 5 g a.i./ha pre-emergence, 11 DAT (Interim)
[10] = HER 5 g a.i./ha pre-emergence, 21 DAT (Final)
[11] = HER 40 g a.i./ha pre-emergence, 14 DAT
[12] = HER 0.5 g a.i./ha + isoxadifen-ethyl 50 g a.i./ha
[13] = HER 15 g a.i./ha pre-emergence, 11 DAT (Interim)
[14] = HER 15 g a.i./ha pre-emergence, 21 DAT (Final)
[15] = HER 40 g a.i./ha pre-emergence, 26 DAT
[16] = HER 80 g a.i./ha pre-emergence, 14 DAT
[17] = HER 80 g a.i./ha pre-emergence, 26 DAT

Compound: C=CC1(C(=O)NC2COC(C(=O)OC)C2)CC(c2cc(F)cc(F)c2)=NO1 (mixture of isomers) [Example 1.68]
- HER effect + SAF ([1]; HER 2 g a.i./ha + isoxadifen-ethyl 50 g a.i./ha, Final): 25%
- Reduction [%] [1, 7]: 58%
- Reduction [Difference] [1, 7]: 35
- HER effect ([1]; HER 2 g a.i./ha, no safener, Final assessment, 0%=no injury, 100%=complete kill): 60%
- HER effect + SAF [2, 8]: 0%
- Reduction [%] ([2]; HER 0.25 g a.i./ha): 100%
- Reduction [Difference] ([2]; HER 0.25 g a.i./ha): 20
- HER effect ([2]; HER 0.25 g a.i./ha): 20%
- HER effect + SAF [3, 8]: 20%
- Reduction [%] ([3]; HER 0.25 g a.i./ha): 50%
- Reduction [Difference] ([3]; HER 0.25 g a.i./ha): 20
- HER effect ([3]; HER 0.25 g a.i./ha): 40%
- HER effect + SAF ([3]; HER 1 g a.i./ha + isoxadifen-ethyl 50 g a.i./ha): 70%
- Reduction [%] ([3]; HER 1 g a.i./ha): 25%
- Reduction [Difference] ([3]; HER 1 g a.i./ha): 23
- HER effect ([3]; HER 1 g a.i./ha): 93%
- Reduction [%] [4, 9]: 44%
- Reduction [Difference] [4, 9]: 20
- Reduction [%] [4, 10]: 56%
- Reduction [Difference] [4, 10]: 25
- HER effect + SAF [4, 9]: 25%
- HER effect + SAF [4, 10]: 20%
- HER effect [4, 9]: 45%
- HER effect [4, 10]: 45%
- Reduction [%] ([5]; 11 DAT (Interim)): 31%
- Reduction [Difference] ([5]; 11 DAT (Interim)): 20
- HER effect + SAF ([5]; 11 DAT (Interim)): 45%
- HER effect ([5]; 11 DAT (Interim)): 65%
- Reduction [%] [6, 11]: 25%
- Reduction [Difference] [6, 11]: 23
- HER effect + SAF [6, 11]: 70%
- HER effect [6, 11]: 93%

Compound: C=CC1(C(=O)NC2C=CC(C(=O)OC)C2)CC(c2cc(F)cc(F)c2)=NO1 (centres unmarked) [Example 1.26]
- HER effect + SAF [2, 12]: 10%
- Reduction [%] ([2]; HER 0.5 g a.i./ha): 75%
- Reduction [Difference] ([2]; HER 0.5 g a.i./ha): 30
- HER effect ([2]; HER 0.5 g a.i./ha): 40%
- HER effect + SAF ([2]; HER 2 g a.i./ha + isoxadifen-ethyl 50 g a.i./ha): 50%
- Reduction [%] ([2]; HER 2 g a.i./ha): 29%
- Reduction [Difference] ([2]; HER 2 g a.i./ha): 20
- HER effect ([2]; HER 2 g a.i./ha): 70%
- HER effect + SAF [3, 12]: 10%
- Reduction [%] ([3]; HER 0.5 g a.i./ha): 75%
- Reduction [Difference] ([3]; HER 0.5 g a.i./ha): 30
- HER effect ([3]; HER 0.5 g a.i./ha): 40%
- Reduction [%] [4, 13]: 31%
- Reduction [Difference] [4, 13]: 20
- Reduction [%] [4, 14]: 80%
- Reduction [Difference] [4, 14]: 60
- HER effect + SAF [4, 13]: 45%
- HER effect + SAF [4, 14]: 15%
- HER effect [4, 13]: 65%
- HER effect [4, 14]: 75%
- Reduction [%] ([5]; 21 DAT (Final)): 90%
- Reduction [Difference] ([5]; 21 DAT (Final)): 45
- HER effect + SAF ([5]; 21 DAT (Final)): 5%
- HER effect ([5]; 21 DAT (Final)): 50%
- Reduction [%] [6, 15]: 90%
- Reduction [Difference] [6, 15]: 45
- HER effect + SAF [6, 15]: 5%
- HER effect [6, 15]: 50%
- Reduction [%] [6, 16]: 36%
- Reduction [Difference] [6, 16]: 25
- Reduction [%] [6, 17]: 79%
- Reduction [Difference] [6, 17]: 55
- HER effect + SAF [6, 16]: 45%
- HER effect + SAF [6, 17]: 15%
- HER effect [6, 16]: 70%
- HER effect [6, 17]: 70%
